Measured values reported in US12297192B2, “Crystal form of pyrimidine sulfonamide compound and preparation method therefor” (WUXI BIOCITY BIOPHARMACEUTICS CO., LTD., priority 2019, dated 2025).
Several values for one entry are separate records, joined by “and”; a condition that tells them apart may be missing. Equal entries are not always repeated. Where a SMILES comes first, the peptide text is derived from it. [ ]: non-standard residue; d: D form.

Legend:
human ETA receptors = target: T1, human ETA receptors (Homo sapiens, UniProt P25101); assay: In vitro antagonistic effect on human ETA receptors (Ca2+ fluorescence, SK-N-MC cells); format: cell-based; settings: SK-N-MC cells, 1 nM endothelin-1
T1 construct: endogenously expressed human ETA receptors in SK-N-MC cells; host or cells: SK-N-MC cells
T1 sequence (P25101 21-427): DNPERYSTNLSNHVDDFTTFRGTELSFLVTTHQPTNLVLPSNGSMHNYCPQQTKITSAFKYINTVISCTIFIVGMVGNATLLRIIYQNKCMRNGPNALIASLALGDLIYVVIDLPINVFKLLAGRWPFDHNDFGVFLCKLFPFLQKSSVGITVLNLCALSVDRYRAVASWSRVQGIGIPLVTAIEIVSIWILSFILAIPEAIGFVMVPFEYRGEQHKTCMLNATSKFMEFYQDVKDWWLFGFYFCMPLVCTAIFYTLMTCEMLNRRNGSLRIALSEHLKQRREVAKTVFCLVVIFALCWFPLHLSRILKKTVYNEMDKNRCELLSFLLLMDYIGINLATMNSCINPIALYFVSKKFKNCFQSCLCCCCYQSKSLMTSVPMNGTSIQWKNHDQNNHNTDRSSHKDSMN
Method: The antagonistic activity of the compounds on endogenously expressed human ETA receptors in SK-N-MC cells was assessed by measuring the effects of the compounds on changes in cytoplasmic Ca^2+ ion signaling induced by an agonist of human ETA receptor using a fluorescence assay. The functional activity of the ETA receptor antagonistic effect was tested at Eurofins-Cerep SA according to current standard operating procedures.
• 1. Cells were suspended in Dulbecco's modified Eagle medium solution (DMEM, Invitrogen) supplemented with 1% FCSd and then distributed at a density of 5×10^4 cells/well in 384 plates (100 μL/well). • 2. Hank's Balanced Salt Solution (HBSS, Invitrogen) supplemented with 20 mM 4-(2-hydroxyethyl) piperazine-1-ethanesulfonic acid (Hepes, Invitrogen) (pH 7.4) was mixed with the fluorescent probe (Fluo4 NW, Invitrogen) and added to each well. Equilibrated with the cells for 60 minutes at 37° C. and then for 15 min at 22° C. • 3. The assay plate was placed in a microplate reader (CellLux, PerkinElmer). DMSO solution of the test compound and the positive control in appropriate concentration or HBSS buffer was added. After 5 minutes, 1 nM endothelin-1 or HBSS buffer (basal control) was added. Then the change in fluorescence intensity was measured. The fluorescence intensity is in proportion to the Ca^2+ ion concentration of the free cytosol. • 4. […] The standard positive control was BQ-123 and several concentrations were tested in each experiment and the data was analyzed using Prism to produce a concentration-response curve to calculate the IC50 values of the compounds. • 6.

human ETB receptors = target: T2, human ETB receptors (Homo sapiens, UniProt P24530); assay: In vitro antagonistic effect on human ETB receptors (Ca2+ fluorescence, transfected CHO cells); format: cell-based; settings: 0.3 nM endothelin-1
T2 construct: host or cells: CHO cells
T2 sequence (P24530 27-442): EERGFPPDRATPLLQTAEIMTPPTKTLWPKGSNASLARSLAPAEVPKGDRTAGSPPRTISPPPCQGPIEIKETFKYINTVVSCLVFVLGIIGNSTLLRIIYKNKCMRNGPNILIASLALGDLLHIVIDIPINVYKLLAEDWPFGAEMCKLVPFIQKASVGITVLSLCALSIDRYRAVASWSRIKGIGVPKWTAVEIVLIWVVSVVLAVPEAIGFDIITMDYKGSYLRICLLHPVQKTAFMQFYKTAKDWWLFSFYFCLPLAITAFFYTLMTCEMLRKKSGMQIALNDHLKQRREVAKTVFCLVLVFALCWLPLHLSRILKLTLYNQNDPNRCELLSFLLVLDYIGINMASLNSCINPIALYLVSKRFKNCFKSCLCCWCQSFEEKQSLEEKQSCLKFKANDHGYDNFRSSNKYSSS
Method: The antagonist activities of the compounds on human ETB receptors expressed in transfected CHO cells were assessed by measuring the effects of the compounds on changes in cytoplasmic Ca^2+ ion signaling induced by an agonist of human ETB receptor using a fluorescence assay. The functional activity of the ETB receptor antagonistic effect was tested at Eurofins-Cerep SA according to current standard operating procedures.
• 1. Cells were suspended in DMEM buffer (Invitrogen) and then distributed at a density of 3×10^4 cells/well in 384 plates (100 μL/well). • 2. HBSS buffer (Invitrogen) supplemented with 20 mM Hepes (Invitrogen) (pH 7.4) was mixed with the fluorescent probe (Fluo4 Direct, Invitrogen) and added to each well. Equilibrated with the cells for 60 minutes at 37° C. and then for 15 minutes at 22° C. • 3. The assay plate was placed in a microplate reader (CellLux, PerkinElmer). DMSO solution of the test compound and the positive control or HBSS buffer in appropriate concentration was added. […] Then the change in fluorescence intensity was measured. The fluorescence intensity is in proportion to the Ca^2+ ion concentration of the free cytosol. • 4. […] The standard positive control was BQ-788 and several concentrations were tested in each experiment and the data was analyzed using Prism to produce a concentration-response curve to calculate the IC50 values of the compounds. […]

SMILES	IC50 (human ETA receptors)	IC50 (human ETB receptors)
CC(C)C[C@@H]1NC(=O)[C@@H](C(C)C)NC(=O)[C@@H]2CCCN2C(=O)[C@@H](CC(=O)O)NC(=O)[C@@H](Cc2c[nH]c3ccccc23)NC1=O [BQ-123, reference compound] (cyclo(L[dW][dD]P[dV]))	0.61 nM and 0.48 nM	–
CCCC[C@@H](NC(=O)[C@@H](Cc1cn(C(=O)OC)c2ccccc12)NC(=O)[C@H](CC(C)(C)C)NC(=O)N1[C@H](C)CCC[C@@H]1C)C(=O)O [BQ-788]	–	130 nM and 91 nM
